Patent publication US7262336B2 (priority 2000, dated 2007)

How the values were obtained:
Assay type in all cases: in vivo, rat
[1] = tested on: Gαq mutant transgenic rats; assay: Stimulant-induced locomotor activity (d-amphetamine, phencyclidine) in Gq transgenic rats
Description: (§1) In general, 10 male and 10 female heterozygotes of each line were compared with a similar number of wild-type littermate controls. Testing began at 7-8 weeks of age. Subjects were individually housed in hanging metal mesh cages with ad libitum access to food and water under a 12 h light/dark cycle. For Lines 76, 67, and 11 the subjects were maintained on powdered rodent chow for the duration of the study. Subjects from Lines 58 and 75 were adapted to powdered chow for the feeding studies and then maintained on that chow for the remainder of the study. Subjects were evaluated in a series of tests outlined below over a period of approximately 12 weeks.
To complement the observations of motor activity obtained using the open field test, heterozygotes and wildtype littermate controls were evaluated for spontaneous locomotor activity using an automated data collection system and a more extended test period. Data in this test was collected in multiple time bins over the test period allowing for some assessment of both the exploratory activity level in a novel environment as well as the rate of habituation to that environment. Having habituated the subjects, a stimulant was administered to determine the responsiveness of these subjects to the stimulant using locomotor activity as a measure. In this study we used an indirect-acting dopamine agonist, d-amphetamine, and a NMDA excitatory amino acid antagonist, phencyclidine, to induce locomotion. The ability of d-amphetamine to increase motor activity is dependent on dopaminergic neurotransmission in the striatum, in particular the nucleus accumbens, but can be influenced by other neurotransmitters. The ability of phencyclidine to induce locomotor activity is dependent on changes in both dopamine and glutatmate neurotransmission (Adams and Moghaddam, J. Neurosci. 1998, 18:5545-54). The differences in locomotor activity observed under spontaneous and stimulant-induced conditions in heterozygotes vs. wildtype littermate controls are summarized in FIGS. 15 and 16.
Subjects were placed in activity monitors (Model RXYZCM16, Omnitech, Columbus, Ohio) equipped with infrared beams to detect movements on both the horizontal (16×16 in field) and vertical axes. The testing room was equipped with white noise. Following a 60 min habituation period during which activity was monitored for differences in spontaneous locomotor activity, each subject was treated with a dose of 1 mg/kg d-amphetamine ip and returned to the activity monitor. Activity induced by d-amphetamine was monitored for 2 h. On a separate occasion, these same subjects were placed in the activity monitors and allowed to habituate for 60 min. Following this re-habituation, each subject was treated with 10 mg/kg phencyclidine ip and monitored for activity for an additional 4 h. The doses of d-amphetamine and phencyclidine were selected based on other studies as doses that induce a hyperactive state in normal rats (see Adams and Moghaddam, supra; Krebs-Thomson et al., Fur. J. Pharmacol. 1998, 343:135-43). Data were analyzed using LSD following a 2-way ANOVA (transgene×time) with one repeated measure (time). Outcomes were determined significant at p<0.05.

[2] = tested on: Gαq mutant transgenic rats; assay: Food intake after RO 60-0175 in Gq transgenic rats vs wild-type littermates
Description: as §1
Wild-type and transgenic rats were maintained on powdered chow in their home cages. Rats were fasted for 24 h prior to evaluation of food intake. Food intake was measured at 2, 4, and 24 h timepoints following ip injection of vehicle, 1, or 1.7 mg/kg RO 60-0175. Experimental sessions were generally conducted on Tues and Fri with 24 h fasts initiating on Mon and Thurs. […] 5-HT2C agonists decrease food intake via a Gαq modulated pathway. Studies using the selective 5-HT2C agonist RO 60-0175 were conducted to determine if 5-HT2C agonist activity was modified in transgenic rats.
To account for the baseline differences in food intake between wild-type and transgenic rats, the effects of RO 60-0175 were calculated as a percentage of the vehicle food intake. The effects of 1.7 mg/kg RO 60-0175 were greater in both males and females for transgenic heterozygotes for lines 75 and 67 (FIG. 7). The effects of 1.0 mg/kg RO 60-0175 were greater in males of line 67 as well (data not shown). […] There was no change in the effects of RO 60-0175 in rats from lines 58, 76, or 11.

[3] = tested on: Gαq mutant transgenic rats; assay: DOI induced headshakes and lethality in Gq transgenic rats; conditions: for number of headshakes: 0.1 mg/kg
Description: as §1
Wild type and transgenic rats were injected ip with either vehicle or DOI (0.001, 0.01, 0.1, 1.0 mg/kg) and were then housed singly in clear Plexiglas chambers (10″×18″×8″) for observational studies. A trained observer counted the number of headshakes for each rat during 2 observation periods (0-30 min; 45-75 min).
Assessing the effect of the RGS insensitive Gαq mutant transgene on receptors coupled via Gαq to the IP3 pathway in transgenic rats was an interest. 5-HT2A agonists produce large increases in headshakes in rats via this pathway. DOI (−1[2,5-dimethoxy-4-iodophenyl]-2-aminopropane) is a 5-HT2A receptor agonist, which increases headshakes in rats, and it has been used to investigate this pathway (Wettstein et al., 1999). DOI administration was used herein to determine if 5-HT2A agonist activity was modified in transgenic rats; results are shown in FIG. 27.

[4] = tested on: normal Sprague-Dawley rats; assay: DOI lethality in normal rats (separate experiments); conditions: doses as high as 30 mg/kg
Description: Higher doses of DOI (3-10 mg/kg) were required to produce similar effects in line 11 (data not shown).

[5] = tested on: Gαq mutant transgenic rats; assay: Pilocarpine-induced cholinergic signs and convulsions in Gq transgenic rats
Description: Muscarinic cholinergic agonists produce a series of cholinergic signs (chromodacryrhea, salivation, diarrhea, hypoactivity, tremors, foaming, convulsions and death) at high doses via a Gαq modulated pathway. Studies were conducted with the muscarinic agonist pilocarpine to determine if muscarinic agonist activity was modified in the transgenic rats (FIG. 28). Studies were conducted with the muscarinic agonist pilocarpine to determine if muscarinic agonist activity was modified by acute lithium (FIG. 29 or chronic lithium (FIG. 30). Both acute and chronic lithium potentiated the cholinergic signs produced by pilocarpine.

c1ccc(C2(N3CCCCC3)CCCCC2)cc1 [PCP, phencyclidine]
locomotor activity induced by phencyclidine, heterozygotes vs wildtype ([1]; 10 mg/kg ip, Line 58 males, delayed in the onset): increase in locomotor activity
phencyclidine locomotor activity, heterozygotes vs wildtype ([1]; 10 mg/kg ip, Line 67 males): reduced
locomotor activity induced by phencyclidine, heterozygotes vs wildtype ([1]; 10 mg/kg ip, Line 76 females, Line 11 males and females, to a lesser degree Line 67 females): delayed hyperactivity
phencyclidine-induced activity, heterozygotes vs wildtype ([1]; 10 mg/kg ip, Line 76 male (p=0.07)): slight trend toward a similar reduction
Noncompetitive NMDA antagonist (PCP) Locomotor Activity ([1]; Gαq mutant Transgenics, cell wraps: 4 of 5 lines ↑ hyperactivity (delayed)): 4 of 5 lines ↑

C[C@H](N)Cn1ccc2cc(F)c(Cl)cc21 [RO 60-0175]
effect on food intake as percentage of vehicle food intake, transgenic vs wild-type ([2]; 1.0 mg/kg ip, line 75 females): greater in wildtype than in transgenic rats
effect on food intake as percentage of vehicle food intake, transgenic heterozygotes vs wild-type ([2]; 1.0 mg/kg ip, males of line 67): greater
effect on food intake as percentage of vehicle food intake, transgenic heterozygotes vs wild-type ([2]; 1.7 mg/kg ip, males and females, lines 75 and 67): greater
5-HT2C Agonist (RO60-0175) Inhibition of Food Intake ([2]; Gαq mutant Transgenics, cell wraps: 2 of 5 lines ↑sensitivity to RO 60-0175): 2 of 5 lines
change in effect on food intake, transgenic vs wild-type ([2]; lines 58, 76, or 11): no change

COc1cc(CC(C)N)c(OC)cc1I (stereo not shown) [DOI, −1[2,5-dimethoxy-4-iodophenyl]-2-aminopropane]
number of headshakes ([3]; line 67 male transgenic heterozygote rats): trend toward increased headshakes
number of headshakes ([3]; line 75 male transgenic heterozygote rats): increased
lethality ([3]; 1 mg/kg, transgenic rats from lines 58, 75, 67 and 76): found dead within 24 hours
5-HT2A Agonist (DOI) Induction of Head Shakes ([3]; Gαq mutant Transgenics, cell wraps: 4 of 5 lines ↓ headshakes): 4 of 5 lines ↓
5-HT2A Agonist (DOI) Flattened Body Posture, Convulsions, Death ([3]; Gαq mutant Transgenics, cell wraps: FBP, conv and death at 1.0 mg/kg, higher doses required for line 11): 4 of 5 lines show FBP,
doses required to produce similar effects (lethality) ([3]; transgenic line 11): 3 to 10 mg/kg
lethality [4]: did not result in lethality

C[C@H](N)Cc1ccccc1 [d-amph, d-amphetamine]
amphetamine-induced locomotor activity, heterozygotes vs wildtype ([1]; 1 mg/kg ip, males of Lines 58, 75, 67, 11 and females of Line 67, 76, 11, but not males of Line 76): reduced amphetamine-induced locomotor activity
Indirect DA agonist (d-amph) Locomotor Activity ([1]; Gαq mutant Transgenics, cell wraps: All lines ↓ hyperactivity): All lines ↓

CC[C@@H]1C(=O)OC[C@@H]1Cc1cncn1C [Pilocarpine, pilocarpine]
Muscarinic Agonist (Pilocarpine) Convulsions, Death ([5]; Gαq mutant Transgenics, cell wraps: 3 of 3 lines tested conv and death (10–30 mg/kg)): 3 of 3 lines tested conv
Muscarinic Agonist (Pilocarpine) Induction of cholinergic signs ([5]; Gαq mutant Transgenics, cell wraps: 3 of 3 lines tested ↑ cholinergic signs): 3 of 3 lines tested ↑
sensitivity of the transgenic rats to the muscarinic agonist ([5]; transgenic rats): increased sensitivity
